Experimental data from patent EP0470275B1, “Skin whitening cosmetics” (priority 1990, dated 1992).

Legend:
[1] = tested on: pigmentation; assay: Animal experiments on inhibition of pigmentation (general statement, no method given); type: in vivo; conditions: compared with free fatty acids or alkyl esters thereof
[2] = Solubility of linoleic acid in a silicone oil or a mixed silicone oil

Row | SMILES | effects on inhibition of pigmentation [1] | Solubility in dimethylpolysiloxane [2]
1 | CCCCCCCCCCCCCCCC(=O)O [palmitic acid] | no such significant effects | 
2 | CC/C=C\C/C=C\C/C=C\CCCCCCCC(=O)O [α-linolenic acid] |  | not soluble
3 | CCCCC/C=C\C/C=C\CCCCCCCC(=O)O [linoleic acid] |  | not soluble
4 | CCCCCCCCCCCCCCCCCC(=O)O [stearic acid] | no such significant effects | 
